# According to patent US10316323B2, “Microorganisms engineered to use unconventional sources of nitrogen” (priority 2013, dated 2019):
# Test system: cyanamide
# Assay: Utilization of cyanamide in rich YPD medium by S. cerevisiae strains
# Assay type: cell-based
# Settings: 10 mM cyanamide in YPD medium
# Experimental: Optical density of NS100 and NS101 grown in rich YPD medium with 100 μg/mL hydgromycin and with and without 10 mM cyanamide. NS100 and NS101 were grown overnight in YNB medium, and inoculated at 3.33% v/v. […] Data are averages of 3 replicate wells in a 96 well plate; 150 μL per well. 30° C., YPD medium or YPD medium with 10 mM cyanamide. Inoculation was with 5 μL of culture pregrown for 24 hrs in the YNB medium with urea as nitrogen source.
structure (smiles),measurement,value
N#CN [cyanamide],effect of cyanamide on microbial growth,act as a deterrent for microbial growth
